Tests used:
NCI-H295R cells = experiment: Proliferation with niclosamide, mitotane or the combination (CyQuant, Chou-Talalay); format: cell-based; details: niclosamide 0.05-0.2 μM or mitotane 0.5-2 μM alone
Description: This example describes a method used to evaluate proliferation of H2965R adrenocortical carcinoma cells in the presence of (1) niclosamide alone (at 0.05 μM, 0.075 μM, 0.1 μM, 0.15 μM, or 0.2 μM), (2) mitotane alone (at 0.5 μM, 0.75 μM, 1 μM, 1.5 μM, or 2 μM), or (3) a combination of both niclosamide and mitotane.
NCI-H295R cells were cultured in Dulbecco modified Eagle medium (DMEM) supplemented with 2.5% NuSerum (BD Biosciences, San Jose, Calif.) and 0.1% ITS premix (BD Biosciences, San Jose, Calif.). Cells were maintained in 5% CO2 atmosphere at 37° C. 3×10^3 cells were plated in 96-well plates. […] Cell count was determined using the CyQuant kit (Life technologies, Grand Island, N.Y.) according to the manufacturer's instructions, and absorbance (cell number) was measured using a SpectraMax M5 microplate reader (Molecular Devices, Sunnyvale, Calif., ex485/em538). Assays were performed in quadruplicate and the experiments were repeated three times.
Statistical analysis was performed using GraphPad Prism 6 software (GraphPad Software, La Jolla, Calif.). Data was analyzed using a two-tailed Mann-Whitney test. Statistical significance was defined as a p-value of less than 0.05. Data are presented as mean±standard deviation (SD). […] Defined as a CI index of <1=synergistic, 1=additive, and >1 antagonistic.

BD140A = experiment: qHTS cell viability (Cell Titer-Glo ATP quantitation); format: cell-based
Description: (§1) NCI-H295R and SW-13 cells were cultured in Dulbecco's modified Eagle medium (DMEM) supplemented with 2.5% NuSerum (BD Biosciences, San Jose, Calif.) and 0.1% ITS premix (BD Biosciences, San Jose, Calif.). BD140A cells, provided by Drs. Kimberly Bussey and Michael Demeure (Phoenix, Ariz.), were cultured in RPMI supplemented with 1% […] (Gibco, Grand Island, N.Y.), 1% penicillin-streptomycin (Gibco, Grand Island, N.Y.), and 10% fetal bovine serum (FBS; Invitrogen, Carlsbad, Calif.). The cell lines were authenticated using short tandem repeat profiling. Cells were maintained in a 5% CO2 atmosphere at 37° C.
(§2) The National Institutes of Health Chemical Genomic Center pharmaceutical library consists of 4,292 small molecules and compounds. Compounds were prepared as described previously (Mehta et al., Clin Cancer Res. 21:4123-32, 2015; hereby incorporated by reference in its entirety). The cell viability of treated cells was measured using the luciferase-coupled ATP quantitation assay, Cell Titer-Glo (Promega, Madison, Wis.). Doxorubicin hydrochloride and tetraoctylammonium bromide were used as positive controls. The final concentration of compounds in the assay ranged from 0.6 nM to 46 μM. The titration-response data was plotted and modeled by a four-parameter logistic fit-to-yield half-maximal inhibitory concentration (IC50) and efficacy (maximal response), as compared to tetraoctylammonium bromide values.

NCI-H295R [1] = experiment: as above; format: cell-based; details: Homo sapiens
Description: as §1, §2

SW-13 [2] = experiment: as above; format: cell-based; details: Homo sapiens, SW13; SW-13, qHTS
Description: as §1, §2

[3] = tested on: adrenocortical carcinoma cell lines NCIH295R, BD140A and SW-13; experiment: qHTS of 4,292 compounds, activity in all three ACC cell lines; format: cell-based; details: lower IC50 and higher efficacy vs cisplatin, doxorubicin, etoposide, mitotane, streptozocin (FIG. 1)
Description: as §1
as §2, with “The titration-response data was plotted and modeled by a four-parameter logistic fit-to-yield half-maximal inhibitory concentration (IC50) and efficacy (maximal response), as compared to tetraoctylammonium bromide values.” left out

[4] = tested on: three ACC cell lines (BD140A, SW-13, NCI-H295R); experiment: Cellular proliferation assay (CyQuant), monolayer culture; format: cell-based
Description: 3×10^3 and 6×10^3 cells were plated in 96-well plates depending on the cell line. 100 μL of fresh culture medium containing the drug or vehicle was added. Cell count was determined using the CyQuant kit (Life Technologies, Grand Island, N.Y.), according to the manufacturer's instructions, and cell number was measured using a SpectraMax M5 microplate reader (ex485/em538; Molecular Devices, Sunnyvale, Calif.). Assays were performed in quadruplicate and the experiments were repeated three times.

NCI-H295R MCAs = experiment: Three-dimensional multicellular aggregates (MCA); format: cell-based; details: after four weeks of treatment
Description: (§3) NCI-H295R and SW-13 cells, which form multicellular aggregates (MCA) or spheroids, were plated in Ultra Low Cluster 24-well plates (Costar, Corning, N.Y.) at 1×10^5 cells/0.5 mL or 6×10^4 cells/0.5 mL depending on the cell line. Spheroids were allowed to develop for one or two weeks at 37° C. in 5% CO2, and media was exchanged twice a week. Spheroids were treated with niclosamide or the vehicle at varying concentrations, and imaged weekly.

SW-13 MCAs = experiment: Three-dimensional multicellular aggregates (MCA); format: cell-based; details: SW-13, after three weeks of treatment
Description: as §3

BD140A cells [5] = experiment: Caspase 3/7 activity assay (Caspase-Glo 3/7); format: cell-based
Description: (§4) Cells were plated in 96-well plates and treated with niclosamide or the vehicle. Caspase 3/7 activity was measured using the Caspase-Glo 3/7 assay (Promega, Madison, Wis.), according to manufacturer's instructions.

NCI-H295R [6] = experiment: Caspase 3/7 activity assay (Caspase-Glo 3/7); format: cell-based; details: 48 hours
Description: as §4

SW-13 [7] = experiment: Caspase 3/7 activity assay (Caspase-Glo 3/7); format: cell-based; details: SW-13, 96 hours
Description: as §4

all three ACC cell lines = experiment: Cell cycle analysis (propidium iodide flow cytometry); format: cell-based; details: 48 hours, more cells in G1, fewer in S phase
Description: Cells plated in six-well plates were treated with niclosamide or the vehicle. At 48 hours, cells were fixed for 30 minutes in 70% ethanol at 4° C., and stained with 50 μg/mL of propidium iodide containing […] of ribonuclease A. Flow cytometry was performed on a Canto I flow cytometer (Becton-Dickinson, Franklin Lakes, N.J.) using CellQuest software (BD Biosciences, San Jose, Calif.). Data was generated for at least 20,000 events per sample and analyzed using Modfit software (Verity Software House, Inc., Topsham, Me.).

[8] = tested on: all three cell lines (ACC); experiment: Seahorse XF96 mitochondrial metabolism assay (OCR, ECAR); format: cell-based
Description: The Seahorse XF96 assay was performed according to the manufacturer's instructions (Seahorse Bioscience, Billerica, Mass.). Briefly, cells were plated in XF96 plates and media was replaced with unbuffered DMEM supplemented with 2 mmol of glutamine and 2.5 g/L of D-Glucose. After 1 hour in a 37° C. CO2-free incubator, the oxygen consumption rate (OCR) and extracellular acidification rate (ECAR) were measured before and after injection of the drug, the vehicle, or carbonyl cyanide 4-(trifluoromethoxy) phenylhydrazone (FCCP) using the Seahorse XF96 extracellular flux analyzer.

ACC cells = experiment: TMRE staining, mitochondrial membrane potential; format: cell-based; details: after 3 hours and 6 hours of treatment
Description: Cells in 96-well plates were treated with the drug or vehicle. Cells were then stained with 200 nM of tetramethylrhodamine, ethyl ester (TMRE) for 20 minutes at 37° C. and were washed with PBS; fluorescence was measured using a SpectraMax M5e 96-well fluorescence microplate reader. FCCP was used as a positive control.

β-catenin = experiment: Western blot analysis of β-catenin; format: cell-based; details: all three cell lines
Description: (§5) The following antibodies were used: anti-beta catenin (1:1,000) from R&D Systems (Minneapolis, Minn.); anti-GAPDH (1:3,000) from Santa Cruz Biotechnology (Dallas, Tex.); anti-N-cadherin (1:4,000) from EMD Millipore (Billerica, Mass.); and anti-vimentin (1:5,000) from Cell Signaling Technology (Boston, Mass.). Niclosamide (2′,5-dichloro-4′-nitrosalicylanilide) was purchased from Sigma-Aldrich (St. Louis, Mo.) and dissolved in DMSO for in vitro studies.
(§6) Cell lysates were analyzed by SDS-PAGE and transferred to a PVDF membrane. The membranes were incubated with the appropriate primary antibodies overnight at 4° C., followed by horseradish peroxidase conjugated IgG (anti-rabbit 1:3,000, Cell Signaling Technology; anti-mouse 1:3,000, Santa Cruz Biotechnology; anti-goat 1:2,000, R&D Systems, Inc.). Proteins were detected by enhanced chemiluminescence (ECL; Thermoscientific, Rockford, Ill.).

AKT pathway = AKT pathway inhibition (FIGS. 6A and 6B); format: cell-based; details: BD140A and H295R cells
NCI-H295R and SW-13 = experiment: Transwell (Boyden chamber) migration assay; format: cell-based; details: transwell migration assays
Description: (§7) NCI-H295R and SW-13 cells were plated in six-well plates and treated with varying concentrations of niclosamide or the vehicle for 24 hours. Cells were trypsinized and plated in transwell chambers (BD Biosciences, San Jose, Calif.) at a density of 1×10^5 cells per 0.5 mL. The lower chamber was filled with DMEM supplemented with 10% FBS as a chemoattractant. Cells were allowed to migrate for 24 hours or 48 hours depending on the cell line, and were fixed and stained with Diff-Quik (Dade Behring, Newark, N.J.). Cells were imaged and counted in three random fields per well, and the experiments performed in triplicate. […] The cells were scratched using a sterile pipette tip and photographed at various time points.

BD140A cells [9] = experiment: Wound-healing migration assay; format: cell-based; details: wound-heal assay, after 6 hours and 12 hours, vs vehicle control
Description: as §7

N-cadherin = experiment: Western blot analysis of EMT mediators; format: cell-based; details: 48 hours of treatment
Description: as §5, §6

vimentin = experiment: Western blot analysis of EMT mediators; format: cell-based; details: 48 hours of treatment
Description: as §5, §6

NCI-H295R xenografts = experiment: ACC xenograft tumor growth in vivo; set-up: species or system Nu+/Nu+ mice; details: for inhibition in tumor growth: four weeks, vs vehicle control
Description: Mice were maintained according to National Institutes of Health (NIH) Animal Research Advisory Committee (ARAC) guidelines. 5×10^6 NCI-H295R cells were injected into the flank of Nu^+/Nu^+mice. Tumors were allowed to grow and mice were randomized into three treatment groups (8 mice per treatment group). M ice were treated with 100 mg/kg of niclosamide, 200 mg/kg of niclosamide, or the vehicle (PEG500) everyday by oral gavage. Tumor sizes were measured in two dimensions every week with calipers and recorded.

[10] = humans; read-out: known Cmax in humans; cited from earlier work
[11] = cited from earlier work
[12] = in vivo; cited from earlier work

Compound: Clc1ccc(C(c2ccccc2Cl)C(Cl)Cl)cc1 (stereo not shown) [mitotane]
- reducing proliferation of H295R cells, single agent (NCI-H295R cells): some effect

Compound: O=C(Nc1ccc([N+](=O)[O-])cc1Cl)c1cc(Cl)ccc1O [niclosamide, 5-chloro-N-(2-chloro-4-nitrophenyl)-2-hydrobenzamide]
- IC50 (BD140A): 120 nM
- IC50 (NCI-H295R [1]): 530 nM
- IC50 (SW-13 [2]): 150 nM
- activity compared to commonly used drugs for ACC [3]: better activity
- cytotoxicity (killing pre-existing cancer cells) ([4]; at higher concentrations): cytotoxic
- cellular proliferation ([4]; monolayer cell culture, three ACC cell lines): inhibited proliferation in a time- and dose-dependent manner
- effect on MCAs (NCI-H295R MCAs): growth inhibition and disintegration of the MCAs
- effect on MCAs (SW-13 MCAs): growth inhibition and disintegration of the MCAs
- caspase 3/7 activity (BD140A cells [5]): no increase
- caspase 3/7 activity (NCI-H295R [6]): increased
- caspase 3/7 activity (SW-13 [7]): increased
- cell cycle progression (all three ACC cell lines): induced G1 cell cycle arrest
- extracellular acidification rate (ECAR) [8]: increased
- oxygen consumption rate (OCR) [8]: increased
- mitochondrial membrane potential (TMRE) (ACC cells): decrease
- expression of β-catenin (β-catenin): reduced
- AKT pathway (AKT pathway): inhibited
- cellular migration (NCI-H295R and SW-13): Reduced
- cell migration (BD140A cells [9]): decreased
- expression of N-cadherin (N-cadherin): reduced
- expression of vimentin (vimentin): reduced
- tumor growth inhibition (NCI-H295R xenografts; 100 mg/kg and 200 mg/kg groups, 8 weeks, vs control group): more than 90%
- tolerability / toxicity in mice (NCI-H295R xenografts; 100 mg/kg and 200 mg/kg oral): no observed toxicity or side effects
- inhibition in tumor growth (NCI-H295R xenografts; 100 mg/kg everyday by oral gavage): 60%
- inhibition in tumor growth (NCI-H295R xenografts; 200 mg/kg everyday by oral gavage): 80%
- mouse body weight (NCI-H295R xenografts; treated groups vs vehicle): no significant weight differences
- reducing proliferation of H295R cells, single agent (NCI-H295R cells): some effect
- Cmax [10]: 18.3 µM
- water solubility [11]: low
- oral bioavailability [12]: low

Reference: patent US20190054047A1, “TREATMENT OF MALIGNANT ADRENOCORTICAL TUMOR WITH NICLOSAMIDE AND OTHER COMPOUNDS” (The U.S.A., as represented by the Secretary, Department of …, priority 2016, published 2019)
